Assay: Urinary excretion study in rats after oral NS, SF or CNS (LC–MS/MS)
Type: in vivo
Conditions: for concentration at 2 h / concentration at 4 h / concentration at 8 h / concentration at 12 h / concentration at 24 h / concentration at 36 h / concentration at 48 h / concentration at 72 h / concentration at 96 h / concentration at 120 h / concentration at 6 h: male, Sprague Dawley, rat, urine, oral; for Accumulative excretion amount / Accumulative excretion percentage / Excretion amount: rat urine
Protocol: The animal room was set at constant temperature of 20 ± 2 °C with humidity of 50 ± 20% and 12/12 h light/dark cycle.
Eighteen male rats were fasted for 12 h before starting the experiment. The rats were divided into three groups at random (n = 6) and received NS (60 mg/kg), SF (50 mg/kg), and NS (60 mg/kg) + SF (50 mg/kg), respectively, by oral gavage. The rats were placed in separate metabolic cages. The urine samples were collected at 0–2, 2–4, 4–6, 6–8, 8–12, 12–24, 24–36, 36–48, 48–72, 72–96, and 96–120 h. The feces samples were collected at 0–4, 4–8, 8–12, 12–24, 24–36, 36–48, 48–72, 72–96, and 96–120 h. The urine volume was recorded and the dry feces were measured for each collection period. Samples were stored at −80 °C until analysis.
An aliquot of 200 μL urine sample was mixed with 10 μL of IS and evaporated to dryness with a ZLS-2 vacuum centrifugal concentrator (Herexi Co., Ltd., Changsha, Hunan, China). The residue was reconstituted in 100 μL of 50% methanol vortexed for 2 min and centrifuged at 12,000 rpm for 15 min. Finally, a 1 μL aliquot was injected for LC–MS analysis.
Ultra fast liquid chromatography (UFLC) analysis was performed using a Shimadzu UFLC system (DGU-20A3R Degasser; LC-20AD pump; SIL-20AXR Autosampler; CTO-20AC Column Oven) (Nakagyo-Ku, Koyoto, Japan). […] Because of the different endogenous substances in the urine and feces samples, different elution gradients were used to alleviate the matrix effects for the analytes.
The mass spectrometric detection was performed on an ABSciex 4500 Qtrap mass spectrometer (ABSciex, Foster City, CA, USA) equipped with a negative electrospray ionization (ESI) interface using multiple reaction monitoring (MRM). The MS parameters were optimized under the selected ion monitoring conditions as follows: curtain gas, 35 psi; ionspray voltage, 4500 V; turbo gas temperature, 450 °C; GS1, 45 psi; GS2, 45 psi. All data were acquired and analyzed by Analyst software (Versions 1.6.2) from ABSciex.
The accumulative excretion percentage was calculated for each analyte as follows. Excretion at time (t) = [concentration of the analyte (ng/mL) at t] × total urine (or feces) volume (mL) at t. The cumulative excretion up to time t (mg) was expressed as a percent (%) cumulative excretion by dividing by the total amount of the analyte ingested (mg): % Cumulative Excretion = 100 × (Σt excretiont) total ingested.

Work on `CC(C)=CCC[C@](C)(O[C@@H]1O[C@H](CO)[C@@H](O)[C@H](O)[C@H]1O)[C@H]1CC[C@]2(C)[C@@H]1[C@H](O)C[C@@H]1[C@@]3(C)CC[C@H](O)C(C)(C)[C@@H]3[C@@H](O[C@@H]3O[C@H](CO)[C@@H](O)[C@H](O)[C@H]3O)C[C@]12C` [ginsenoside Rg1] yielded a concentration at 2 h (60 mg/kg, oral NS 60 mg/kg, 2 h) of 3360 ± 7020 ng/mL, a concentration at 4 h (60 mg/kg, oral NS 60 mg/kg, 4 h) of 1680 ± 1800 ng/mL and a concentration at 8 h (60 mg/kg, oral NS 60 mg/kg, 8 h) of 1140 ± 1230 ng/mL. It also gave a concentration at 12 h (60 mg/kg, oral NS 60 mg/kg, 12 h) of 727 ± 171 ng/mL, a concentration at 24 h (60 mg/kg, oral NS 60 mg/kg, 24 h) of 135 ± 209 ng/mL and a concentration at 36 h (60 mg/kg, oral NS 60 mg/kg, 36 h) of 115 ± 151 ng/mL. For the same compound, the concentration at 48 h (60 mg/kg, oral NS 60 mg/kg, 48 h) was 100 ± 171 ng/mL, the concentration at 72 h (60 mg/kg, oral NS 60 mg/kg, 72 h) was 178 ± 382 ng/mL and the concentration at 96 h (60 mg/kg, oral NS 60 mg/kg, 96 h) was 85 ± 159 ng/mL. The concentration at 120 h (60 mg/kg, oral NS 60 mg/kg, 120 h) was 59 ± 105 ng/mL, the concentration at 2 h (oral CNS 110 mg/kg, 2 h) was 1510 ± 1440 ng/mL and the concentration at 4 h (oral CNS 110 mg/kg, 4 h) was 1690 ± 2340 ng/mL. It also gave a concentration at 6 h (oral CNS 110 mg/kg, 6 h) of 544 ± 216 ng/mL, a concentration at 8 h (oral CNS 110 mg/kg, 8 h) of 835 ± 697 ng/mL and a concentration at 12 h (oral CNS 110 mg/kg, 12 h) of 789 ± 937 ng/mL. The concentration at 24 h (oral CNS 110 mg/kg, 24 h) was 2350 ± 5830 ng/mL, the concentration at 36 h (oral CNS 110 mg/kg, 36 h) was 228 ± 361 ng/mL and the concentration at 48 h (oral CNS 110 mg/kg, 48 h) was 65 ± 82 ng/mL. It also gave a concentration at 72 h (oral CNS 110 mg/kg, 72 h) of 93 ± 156 ng/mL, a concentration at 96 h (oral CNS 110 mg/kg, 96 h) of 46 ± 53 ng/mL and a concentration at 120 h (oral CNS 110 mg/kg, 120 h) of 80 ± 174 ng/mL. For the same compound, the concentration at 6 h (oral NS 60 mg/kg, 6 h) was 1440 ± 1460 ng/mL, the Accumulative excretion amount (oral CNS 110 mg/kg, 2 h) was 1.881 ± 1.001 µg and the Accumulative excretion percentage (oral CNS 110 mg/kg, 2 h) was 0.066±0.032%. It also gave an Excretion amount (oral CNS 110 mg/kg, 2 h) of 1.881 ± 1.001 µg, an Accumulative excretion amount (oral CNS 110 mg/kg, 4 h) of 3.382 ± 2.188 µg and an Accumulative excretion percentage (oral CNS 110 mg/kg, 4 h) of 0.111±0.072%. It also gave an Excretion amount (oral CNS 110 mg/kg, 4 h) of 2.002 ± 1.609 µg, an Accumulative excretion amount (oral CNS 110 mg/kg, 6 h) of 3.994 ± 2.061 µg and an Accumulative excretion percentage (oral CNS 110 mg/kg, 6 h) of 0.132±0.073%. For the same compound, the Excretion amount (oral CNS 110 mg/kg, 6 h) was 0.816 ± 0.264 µg, the Accumulative excretion amount (oral CNS 110 mg/kg, 8 h) was 4.725 ± 2.486 µg and the Accumulative excretion percentage (oral CNS 110 mg/kg, 8 h) was 0.155±0.084%. For the same compound, the Excretion amount (oral CNS 110 mg/kg, 8 h) was 1.169 ± 0.913 µg, the Accumulative excretion amount (oral CNS 110 mg/kg, 12 h) was 5.430 ± 2.374 µg and the Accumulative excretion percentage (oral CNS 110 mg/kg, 12 h) was 0.188±0.080%. The Excretion amount (oral CNS 110 mg/kg, 12 h) was 0.805 ± 0.300 µg, the Accumulative excretion amount (oral CNS 110 mg/kg, 24 h) was 8.052 ± 5.572 µg and the Accumulative excretion percentage (oral CNS 110 mg/kg, 24 h) was 0.263±0.182%. For the same compound, the Excretion amount (oral CNS 110 mg/kg, 24 h) was 2.622 ± 5.710 µg, the Accumulative excretion amount (oral CNS 110 mg/kg, 36 h) was 8.388 ± 5.927 µg and the Accumulative excretion percentage (oral CNS 110 mg/kg, 36 h) was 0.274±0.195%. It also gave an Excretion amount (oral CNS 110 mg/kg, 36 h) of 0.336 ± 0.421 µg, an Accumulative excretion amount (oral CNS 110 mg/kg, 48 h) of 8.689 ± 6.056 µg and an Accumulative excretion percentage (oral CNS 110 mg/kg, 48 h) of 0.285±0.202%. It also gave an Excretion amount (oral CNS 110 mg/kg, 48 h) of 0.301 ± 0.361 µg, an Accumulative excretion amount (oral CNS 110 mg/kg, 72 h) of 8.87 ± 6.051 µg and an Accumulative excretion percentage (oral CNS 110 mg/kg, 72 h) of 0.293±0.206%. For the same compound, the Excretion amount (oral CNS 110 mg/kg, 72 h) was 0.185 ± 0.312 µg, the Accumulative excretion amount (oral CNS 110 mg/kg, 96 h) was 8.966 ± 6.090 µg and the Accumulative excretion percentage (oral CNS 110 mg/kg, 96 h) was 0.292±0.204%. It also gave an Excretion amount (oral CNS 110 mg/kg, 96 h) of 0.091 ± 0.106 µg, an Accumulative excretion amount (oral CNS 110 mg/kg, 120 h) of 9.027 ± 6.117 µg and an Accumulative excretion percentage (oral CNS 110 mg/kg, 120 h) of 0.292±0.206%. The Excretion amount (oral CNS 110 mg/kg, 120 h) was 0.061 ± 0.081 µg, the Accumulative excretion amount (oral NS 60 mg/kg, 2 h) was 4.985 ± 1.411 µg and the Accumulative excretion percentage (oral NS 60 mg/kg, 2 h) was 0.142±0.045%. The Excretion amount (oral NS 60 mg/kg, 2 h) was 4.985 ± 1.411 µg, the Accumulative excretion amount (oral NS 60 mg/kg, 4 h) was 6.610 ± 2.052 µg and the Accumulative excretion percentage (oral NS 60 mg/kg, 4 h) was 0.193±0.061%. For the same compound, the Excretion amount (oral NS 60 mg/kg, 4 h) was 2.844 ± 0.973 µg, the Accumulative excretion amount (oral NS 60 mg/kg, 6 h) was 9.709 ± 2.893 µg and the Accumulative excretion percentage (oral NS 60 mg/kg, 6 h) was 0.285±0.086%. It also gave an Excretion amount (oral NS 60 mg/kg, 6 h) of 3.616 ± 2.575 µg, an Accumulative excretion amount (oral NS 60 mg/kg, 8 h) of 11.931 ± 4.568 µg and an Accumulative excretion percentage (oral NS 60 mg/kg, 8 h) of 0.348±0.137%. For the same compound, the Excretion amount (oral NS 60 mg/kg, 8 h) was 3.890 ± 2.477 µg, the Accumulative excretion amount (oral NS 60 mg/kg, 12 h) was 15.061 ± 7.022 µg and the Accumulative excretion percentage (oral NS 60 mg/kg, 12 h) was 0.439±0.200%. For the same compound, the Excretion amount (oral NS 60 mg/kg, 12 h) was 3.130 ± 2.715 µg, the Accumulative excretion amount (oral NS 60 mg/kg, 24 h) was 15.697 ± 7.182 µg and the Accumulative excretion percentage (oral NS 60 mg/kg, 24 h) was 0.451±0.202%. For the same compound, the Excretion amount (oral NS 60 mg/kg, 24 h) was 0.636 ± 0.590 µg, the Accumulative excretion amount (oral NS 60 mg/kg, 36 h) was 16.042 ± 7.062 µg and the Accumulative excretion percentage (oral NS 60 mg/kg, 36 h) was 0.463±0.204%. It also gave an Excretion amount (oral NS 60 mg/kg, 36 h) of 0.402 ± 0.338 µg, an Accumulative excretion percentage (oral NS 60 mg/kg, 48 h) of 0.465±0.204% and an Excretion amount (oral NS 60 mg/kg, 48 h) of 0.285 ± 0.276 µg. For the same compound, the Accumulative excretion amount (oral NS 60 mg/kg, 72 h) was 16.417 ± 7.147 µg, the Accumulative excretion percentage (oral NS 60 mg/kg, 72 h) was 0.476±0.208% and the Excretion amount (oral NS 60 mg/kg, 72 h) was 0.091 ± 0.014 µg. The Excretion amount (oral NS 60 mg/kg, 96 h) was 0.062 ± 0.110 µg and the Excretion amount (oral NS 60 mg/kg, 120 h) was 0.062 ± 0.148 µg.

Source: PMC6321168, “Comparative Study on Excretive Characterization of Main Components in Herb Pair Notoginseng-Safflower and Single Herbs by LC–MS/MS” (Pharmaceutics, 2018)
